Source: patent US20190046556A1, “Methods and Pharmaceutical Compositions for the Prophylactic Treatment of Peritoneal Carcinomatosis” (INSERM (Institut National de la Sante et de la Recherche …, priority 2016, published 2019)

Tested on: OVCAR
Format: in vivo
Conditions: 21 days, nude mice
From the text: For that experiment, a human ovarian cancer cell line, named OVCAR is used, as prior exposed for the CT-26 cells. The only difference is the mice receiving cell injection, because OVACR is a human cancer cell, a nude mice animal is used because of immune deficiency of the animal.

In the case of `O=C1[O][Pt]2([NH][C@@H]3CCCC[C@H]3[NH]2)[O]C1=O` [Oxaliplatin], the “Mean PCI (peritoneal cancer index)” value is reported as 3,7.
